Measurements reported in the NIST ThermoML archive (doi:10.1021/je500275j).

Assay: xn = mol fraction of the nth substance listed
Conditions: 100 kPa, Liquid; for viscosity: Falling or rolling sphere viscometry; for mass density: Vibrating tube method

C1CCC(C2CCCCC2)CC1 [1,1'-bicyclohexyl] + CCCCC1CCCCC1
Conditions | mass density [kg/m3] | viscosity [mPa·s]
293.15 K, x1 = 0.1002 | 809.11 | 1.43
293.15 K, x1 = 0.2003 | 818.37 | 1.585
293.15 K, x1 = 0.2997 | 827.41 | 1.757
293.15 K, x1 = 0.4002 | 836.41 | 1.952
293.15 K, x1 = 0.4999 | 845.11 | 2.184
293.15 K, x1 = 0.6011 | 853.76 | 2.45
293.15 K, x1 = 0.7003 | 862.14 | 2.759
293.15 K, x1 = 0.7999 | 870.34 | 3.132
293.15 K, x1 = 0.9008 | 878.53 | 3.563
293.15 K, x1 = 1 | 886.39 | 4.017
298.15 K, x1 = 0.1002 | 805.38 | 1.311
298.15 K, x1 = 0.2003 | 814.66 | 1.449
298.15 K, x1 = 0.2997 | 823.71 | 1.6
298.15 K, x1 = 0.4002 | 832.69 | 1.772
298.15 K, x1 = 0.4999 | 841.44 | 1.975
298.15 K, x1 = 0.6011 | 850.11 | 2.205
298.15 K, x1 = 0.7003 | 858.51 | 2.471
298.15 K, x1 = 0.7999 | 866.72 | 2.797
298.15 K, x1 = 0.9008 | 874.92 | 3.15
298.15 K, x1 = 1 | 882.79 | 3.541
303.15 K, x1 = 0.1002 | 801.64 | 1.209
303.15 K, x1 = 0.2003 | 810.94 | 1.332
303.15 K, x1 = 0.2997 | 820.01 | 1.466
303.15 K, x1 = 0.4002 | 829.01 | 1.619
303.15 K, x1 = 0.4999 | 837.77 | 1.796
303.15 K, x1 = 0.6011 | 846.46 | 1.998
303.15 K, x1 = 0.7003 | 854.87 | 2.231
303.15 K, x1 = 0.7999 | 863.09 | 2.508
303.15 K, x1 = 0.9008 | 871.31 | 2.812
303.15 K, x1 = 1 | 879.19 | 3.145
308.15 K, x1 = 0.1002 | 797.9 | 1.12
308.15 K, x1 = 0.2003 | 807.21 | 1.229
308.15 K, x1 = 0.2997 | 816.31 | 1.349
308.15 K, x1 = 0.4002 | 825.32 | 1.485
308.15 K, x1 = 0.4999 | 834.1 | 1.643
308.15 K, x1 = 0.6011 | 842.81 | 1.821
308.15 K, x1 = 0.7003 | 851.24 | 2.022
308.15 K, x1 = 0.7999 | 859.47 | 2.272
308.15 K, x1 = 0.9008 | 867.7 | 2.53
308.15 K, x1 = 1 | 875.6 | 2.817
313.15 K, x1 = 0.1002 | 794.15 | 1.041
313.15 K, x1 = 0.2003 | 803.48 | 1.139
313.15 K, x1 = 0.2997 | 812.6 | 1.247
313.15 K, x1 = 0.4002 | 821.64 | 1.368
313.15 K, x1 = 0.4999 | 830.43 | 1.508
313.15 K, x1 = 0.6011 | 839.15 | 1.665
313.15 K, x1 = 0.7003 | 847.6 | 1.844
313.15 K, x1 = 0.7999 | 855.85 | 2.061
313.15 K, x1 = 0.9008 | 864.1 | 2.288
313.15 K, x1 = 1 | 872.01 | 2.54
318.15 K, x1 = 0.1002 | 790.39 | 0.971
318.15 K, x1 = 0.2003 | 799.75 | 1.059
318.15 K, x1 = 0.2997 | 808.89 | 1.157
318.15 K, x1 = 0.4002 | 817.94 | 1.265
318.15 K, x1 = 0.4999 | 826.76 | 1.391
318.15 K, x1 = 0.6011 | 835.5 | 1.532
318.15 K, x1 = 0.7003 | 843.97 | 1.689
318.15 K, x1 = 0.7999 | 852.23 | 1.883
318.15 K, x1 = 0.9008 | 860.5 | 2.082
318.15 K, x1 = 1 | 868.43 | 2.302

C1CCC(C2CCCCC2)CC1 [1,1'-bicyclohexyl] + CC1CCCCC1
Conditions | mass density [kg/m3] | viscosity [mPa·s]
293.15 K, x1 = 0.0999 | 786.65 | 0.882
293.15 K, x1 = 0.2015 | 802.4 | 1.053
293.15 K, x1 = 0.3012 | 816.38 | 1.269
293.15 K, x1 = 0.4007 | 828.96 | 1.513
293.15 K, x1 = 0.4994 | 840.4 | 1.77
293.15 K, x1 = 0.5986 | 850.98 | 2.12
293.15 K, x1 = 0.7002 | 861.06 | 2.507
293.15 K, x1 = 0.7998 | 870.05 | 2.935
293.15 K, x1 = 0.8998 | 878.51 | 3.428
293.15 K, x1 = 1 | 886.39 | 4.017
298.15 K, x1 = 0.0999 | 782.49 | 0.821
298.15 K, x1 = 0.2015 | 798.27 | 0.977
298.15 K, x1 = 0.3012 | 812.39 | 1.173
298.15 K, x1 = 0.4007 | 825.06 | 1.389
298.15 K, x1 = 0.4994 | 836.55 | 1.616
298.15 K, x1 = 0.5986 | 847.21 | 1.923
298.15 K, x1 = 0.7002 | 857.36 | 2.261
298.15 K, x1 = 0.7998 | 866.41 | 2.628
298.15 K, x1 = 0.8998 | 874.87 | 3.05
298.15 K, x1 = 1 | 882.79 | 3.541
303.15 K, x1 = 0.0999 | 778.28 | 0.768
303.15 K, x1 = 0.2015 | 794.17 | 0.905
303.15 K, x1 = 0.3012 | 808.39 | 1.086
303.15 K, x1 = 0.4007 | 821.14 | 1.28
303.15 K, x1 = 0.4994 | 832.74 | 1.49
303.15 K, x1 = 0.5986 | 843.46 | 1.754
303.15 K, x1 = 0.7002 | 853.63 | 2.056
303.15 K, x1 = 0.7998 | 862.73 | 2.367
303.15 K, x1 = 0.8998 | 871.23 | 2.73
303.15 K, x1 = 1 | 879.19 | 3.145
308.15 K, x1 = 0.0999 | 774.06 | 0.722
308.15 K, x1 = 0.2015 | 790.07 | 0.85
308.15 K, x1 = 0.3012 | 804.38 | 1.01
308.15 K, x1 = 0.4007 | 817.21 | 1.185
308.15 K, x1 = 0.4994 | 828.85 | 1.373
308.15 K, x1 = 0.5986 | 839.63 | 1.609
308.15 K, x1 = 0.7002 | 849.8 | 1.871
308.15 K, x1 = 0.7998 | 859.05 | 2.143
308.15 K, x1 = 0.8998 | 867.6 | 2.459
308.15 K, x1 = 1 | 875.6 | 2.817
313.15 K, x1 = 0.0999 | 769.83 | 0.679
313.15 K, x1 = 0.2015 | 785.95 | 0.795
313.15 K, x1 = 0.3012 | 800.36 | 0.942
313.15 K, x1 = 0.4007 | 813.28 | 1.102
313.15 K, x1 = 0.4994 | 824.98 | 1.268
313.15 K, x1 = 0.5986 | 835.85 | 1.474
313.15 K, x1 = 0.7002 | 846.15 | 1.708
313.15 K, x1 = 0.7998 | 855.37 | 1.953
313.15 K, x1 = 0.8998 | 863.97 | 2.227
313.15 K, x1 = 1 | 872.01 | 2.54
318.15 K, x1 = 0.0999 | 765.59 | 0.641
318.15 K, x1 = 0.2015 | 781.82 | 0.747
318.15 K, x1 = 0.3012 | 796.34 | 0.882
318.15 K, x1 = 0.4007 | 809.35 | 1.025
318.15 K, x1 = 0.4994 | 821.14 | 1.177
318.15 K, x1 = 0.5986 | 832.06 | 1.37
318.15 K, x1 = 0.7002 | 842.45 | 1.582
318.15 K, x1 = 0.7998 | 851.7 | 1.788
318.15 K, x1 = 0.8998 | 860.35 | 2.032
318.15 K, x1 = 1 | 868.43 | 2.302
